Read-outs that look alike come from different tables or passages of the source. One block for each compound: values may come before it. Where a SMILES comes first, the peptide text is derived from it. Bridges are numbered along the chain shown (N, C = ends). [ ]: non-standard residue; d: D form. Tle = CC(C)(C)[C@H](N)C(=O)O; hCys = N[C@@H](CCS)C(=O)O; Aib = CC(C)(N)C(=O)O
Assays:
[1] = system: TFPI; test: IC50 ELISA | Mean IC50 [nM]
[2] = system: Tissue Factor Pathway Inhibitor (TFPI); test: IC50 ELISA | IC50 [nM]
Text: Table printed on a drawing sheet, FIGURE 78R
(§1) Head of the field: IC50 ELISA | IC50 [nM]

[3] = system: Tissue Factor Pathway Inhibitor (TFPI); test: IC50 ELISA | Mean IC50 [nM]
Text: Table printed on a drawing sheet, FIGURE 78M
Head of the field: IC50 ELISA | Mean IC50 [nM]

[4] = system: Tissue Factor Pathway Inhibitor (TFPI); test: IC50 ELISA | Mean IC50 [nM]; remark: listed apart in the source
[5] = system: TFPI; test: IC50 ELISA | Mean IC50 [nM]; remark: listed apart in the source
[6] = system: TFPI; settings: read-out: IC50 Mean
[7] = FIGURE 78W
Text: Table printed on a drawing sheet, FIGURE 78W

[8] = system: Tissue Factor Pathway Inhibitor (TFPI); test: IC50 ELISA | IC50 [nM]; remark: listed apart in the source
Text: Table printed on a drawing sheet, FIGURE 78S
as §1

[9] = system: FIX knock-out mice; test: Tail-tip bleed model in FIX knock-out mice; type: in vivo, mouse
Description: JBT2329 also was tested in a FIX knock-out tail-tip bleed mouse model, which is a clinically-relevant model for hemophilia B human patients. The methodology was substantially similar to that described above with respect to the FVIII knock-out model. Instead of ADVATE, a recombinant FIX (rFIX) served as a reference. Median total blood loss in buffer-treated animals was 935 mg. Median total blood loss in animals treated with a murine anti-TFPI antibody (maTFPI) was 774 mg. Median total blood loss was reduced further when the animals received combined treatment of maTFPI and rFIX.

[10] = system: Tissue Factor Pathway Inhibitor (TFPI); test: IC50 ELISA | IC50 [nM]; remark: listed apart in the source
Text: Table printed on a drawing sheet, FIGURE 78Q
as §1

[11] = system: TFPI; test: Extrinsic Tenase Inhibition assay | % Inhibition @ 2.5µM
[12] = system: Tissue Factor Pathway Inhibitor (TFPI); test: IC50 ELISA | IC50 [nM]; remark: listed apart in the source
Text: Table printed on a drawing sheet, FIGURE 78U
as §1

[13] = system: Tissue Factor Pathway Inhibitor (TFPI); test: IC50 ELISA | Mean IC50 [nM]; remark: listed apart in the source
[14] = FIGURE 78K
Text: Table printed on a drawing sheet, FIGURE 78K

[15] = FIGURE 78L
Text: Table printed on a drawing sheet, FIGURE 78L

[16] = FIGURE 78M
[17] = system: Tissue Factor Pathway Inhibitor (TFPI); test: IC50 ELISA | Mean IC50 [nM]; remark: listed apart in the source

- IC50 [1]: 15.1 nM
Compound: Ac-FQSK-Nmg-NVFVTGYFERL-Aib-AKL-NH2 [JBT00001585]

- IC50 [2]: > 500 nM
Compound: Palm-FQSKpNVH-Tle-DaYFERL-Aib-AKL-NH2 [JBT00002440]

- IC50 [3]: 20.8 nM
Compound: Ac-FQSKpNVHVDGYFERL-Aib-AKLC(ME-400MA)-NH2 [JBT00002329] [listing 1 of 2 here]

- IC50 [4]: 2.84 nM
Compound: CC(=O)N[C@@H](Cc1ccccc1)C(=O)N[C@@H](CCC(N)=O)C(=O)N[C@@H](CO)C(=O)N[C@@H](CCCCN)C(=O)N1CCC[C@@H]1C(=O)N[C@@H](CC(N)=O)C(=O)N[C@H](C(=O)N[C@@H](Cc1c[nH]cn1)C(=O)N[C@H](C(=O)N[C@@H](CC(=O)O)C(=O)N[C@@H]1CSSCC[C@@H](C(=O)N[C@@H](CCCNC(=N)N)C(=O)N[C@@H](CC(C)C)C(=O)NC(C)(C)C(=O)N[C@@H](C)C(=O)N[C@@H](CCCCN)C(=O)N[C@@H](CC(C)C)C(N)=O)NC(=O)[C@H](Cc2ccccc2)NC(=O)[C@H](Cc2ccc(O)cc2)NC1=O)C(C)(C)C)C(C)C [JBT00002494, Ac-FQSKpNVH-Tle-D[cYF-Hcy-]RL-Aib-AKL-NH2] (Ac-FQSK[dP]NVH[Tle]D[dC]YF[hCys]RL[Aib]AKL-NH2; disulfide 11-14)

- IC50 [5]: 1.03 nM
Compound: (Ac-FQSKpNVHVDGYFERL-Aib-AKLC-NH2)2-M2PEG2000 [JBT00002523]

Compound: Ac-FQSKGNVFVTGYFDRLRAKL-NH2 [JBT0775 | 69]
- IC50 [6]: 22 nM

- 24 h Human Plasma Stability | Mean Remaining [%] [7]: 40.70%
Compound: Ac-FQSKpNVHVPcYF-Hcy-RL-Aib-AKL-NH2 [JBT00002499]

- IC50 [8]: > 500 nM
Compound: Ac-FQSKpNVH-Tle-DaYFERL-Aib-A-Opc-L-NH2 [JBT00002447]

Compound: rFIX: a recombinant FIX
- Median total blood loss ([9]; 10 IU/kg rFIX alone): 888 mg
- Median total blood loss ([9]; 25 IU/kg rFIX alone): 774 mg

- IC50 [1]: 121 nM
Compound: Ac-FQSKGNVFVDGYFERL-Aib-AKLC(PEG)-NH2 [JBT00001855]

- IC50 [10]: > 500 nM
Compound: Ac-FQSKpNVH-Tle-DGYFERL-Aib-A-Nmk-L-NH2 [JBT00002425]

Compound: Ac-SRYKWFGMR[CDMKGC]TMSVWVKF-NH2 (SEQ ID NO: 1162) (Ac-SRYKWFGMRCDMKGCTMSVWVKF-NH2; disulfide 10-15; SMILES CSCC[C@H](NC(=O)CNC(=O)[C@H](Cc1ccccc1)NC(=O)[C@H](Cc1c[nH]c2ccccc12)NC(=O)[C@H](CCCCN)NC(=O)[C@H](Cc1ccc(O)cc1)NC(=O)[C@H](CCCNC(=N)N)NC(=O)[C@H](CO)NC(C)=O)C(=O)N[C@@H](CCCNC(=N)N)C(=O)N[C@H]1CSSC[C@@H](C(=O)N[C@H](C(=O)N[C@@H](CCSC)C(=O)N[C@@H](CO)C(=O)N[C@H](C(=O)N[C@@H](Cc2c[nH]c3ccccc23)C(=O)N[C@H](C(=O)N[C@@H](CCCCN)C(=O)N[C@@H](Cc2ccccc2)C(N)=O)C(C)C)C(C)C)[C@@H](C)O)NC(=O)CNC(=O)[C@H](CCCCN)NC(=O)[C@H](CCSC)NC(=O)[C@H](CC(=O)O)NC1=O) [JBT0470]
- Extrinsic Tenase Inhibition assay | % Inhibition @ […] [11]: 2%

- IC50 [12]: > 500 nM
Compound: Ac-FQSKpNVH-Tle-DaYF[-Hcy-RL-Aib--Hcy-]KL-NH2 [JBT00002489]

- IC50 [13]: 6.6 nM
Compound: Ac-FQSKpNVHVDGYFERL-Aib-AKLC(ME-50MA)-NH2 [JBT00002325]

- 24 h Human Plasma Stability | Mean Remaining [%] [16]: 59.30%
- 24 h Mouse Plasma Stability | Mean Remaining [%] [16]: 56.70%
Compound: Ac-FQSKpNVHVDGYFERL-Aib-AKLC(ME-400MA)-NH2 [JBT00002329] [listing 2 of 2 here]
- 24 h Human Plasma Stability | Mean Remaining [%] [14]: 69.50%
- 24 h Mouse Plasma Stability | Mean Remaining [%] [14]: 69.50%
- 24 h Human Plasma Stability | Mean Remaining [%] [15]: 62.90%
- 24 h Mouse Plasma Stability | Mean Remaining [%] [15]: 81.80%

- IC50 [17]: 2.7 nM
Compound: Ac-FQSKpNVHVDGYFERL-Egz-AKL-NH2 [JBT00002302]

From patent publication US10800816B2 (Baxalta GmbH, priority 2012, dated 2020)
